What all share (assay): NCI-60 cell line screen, 48 h
The test system of assay [1] is SW-620.
Assay [2] concerns UO-31.
The subject of assay [3] is HOP-92.
Assay [4] relates to OVCAR-4.
For assay [5], the system named is SF-268.
The test system of assay [6] is Malme-3M.
The test system of assay [7] is HCT-116.
The subject of assay [8] is PC-3.
In assay [9] the test system is OVCAR-8.
For assay [10], the system named is SNB-19.
The subject of assay [11] is RPMI-8226.
The subject of assay [12] is SK-MEL-5.
Assay [13] has as its system OVCAR-5.
The test system of assay [14] is HOP-62.
The test system of assay [15] is EKVX.
Assay [16] relates to LOX IMVI.
The subject of assay [17] is NCI-H460.
The subject of assay [18] is RXF 393.

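Dose response: 5 concentrations. Exposure: 48 h. Format: 96-well plates. Endpoint: linear interpolation; highest concentration if not reached. At the GI50, growth is halved.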 The source made the active and inactive calls. Cut-off read from the data, not from the text of the source: active = GI50 up to about 1.1 µM and inactive = higher. A value given as a limit tells only on which side of the number the result lay.

As for `COC1CC(OC2C(C)OC(OC3C(C)OC(OC4C(C)OC(O[C@H]5CC[C@@]6(C)C(=CC[C@]7(O)[C@@H]6C[C@@H](OC(C)=O)[C@@]6(C)[C@]7(O)CC[C@@]6(O)C(C)=O)C5)CC4OC)CC3OC)CC2OC)OC(C)C1O` (stereo partly specified), the GI50 in [1], in assay [2], in assay [3], in assay [4], in assay [5] and in [6] was > 25 µM (inactive) in each case. Besides, the GI50 in [7], in [8], in [9], in assay [10], in assay [11] and in assay [12] was > 25 µM (inactive) in each case. For the same compound, the GI50 in assay [13], in [14], in [15] and in assay [16] was > 25 µM (inactive) in each case.
On to `COc1ccc(S(=O)(=O)N2C(=O)CCC2C(=O)NC(N)=O)cc1` (stereo unspecified), for which the GI50 in assay [1], in [2], in [3], in [4], in [6] and in [7] was > 100 µM (inactive) in each case. Further, the GI50 in assay [8], in [17], in assay [9], in assay [10], in assay [11] and in assay [12] was > 100 µM (inactive) each time. In addition, the GI50 in [13], in [14], in [15] and in assay [16] was > 100 µM (inactive) throughout.
With `N#CCc1nc(C#N)c(N)o1`, the GI50 is > 100 µM (inactive) in [1]; > 100 µM (inactive) in [2]; > 100 µM (inactive) in assay [3]; > 100 µM (inactive) in [4]; > 100 µM (inactive) in assay [5]; < 0.01 µM (active) in [6]. Also, the GI50 in assay [7], in assay [8], in assay [17], in assay [18], in assay [9] and in assay [13] was > 100 µM (inactive) each time. Also, the GI50 in assay [14] is > 100 µM (inactive).
As to `O=c1[nH]c(=S)c2cc3c(=S)[nH]c(=O)n(CCC(c4ccccc4)(c4ccccc4)c4ccccc4)c3nc2n1CCC(c1ccccc1)(c1ccccc1)c1ccccc1`, the GI50 in assay [2], in [3], in assay [4], in [5], in [6] and in [7] was > 100 µM (inactive) in each case. The GI50 in [8], in [17], in assay [10], in [11], in [12] and in assay [13] was > 100 µM (inactive) in each case. The GI50 in assay [14] and in assay [15] was > 100 µM (inactive) throughout.
Consider `OCCCc1cc(O)c2c(c1)C(CO)C(c1ccc(O)c(O)c1)O2` (stereo unspecified), for which the GI50 in [1] was > 100 µM (inactive); in assay [2] it was > 100 µM (inactive); in [3] it was > 100 µM (inactive); in assay [4], > 10 µM (inactive); in assay [5], > 100 µM (inactive); in assay [6], > 100 µM (inactive). Moreover, the GI50 in [7] is > 100 µM (inactive); in assay [8], > 100 µM (inactive); in assay [17], > 100 µM (inactive); in assay [9] it was > 100 µM (inactive); in assay [10], > 100 µM (inactive); in [11], > 10 µM (inactive). The GI50 in assay [12], in assay [13], in assay [14], in [15] and in assay [16] was > 100 µM (inactive) each time.
Consider `CN1CNc2nc(N)n(C)c(=O)c2C1`, for which the GI50 in assay [2], in assay [3], in assay [4], in assay [5], in assay [6] and in [17] was > 10 µM (inactive) each time. The GI50 in assay [18], in assay [9], in assay [10], in [13] and in assay [15] was > 10 µM (inactive) in each case.
Regarding `O=C(Nc1cccc(C(F)(F)F)c1)O/N=C(/Cl)CCl`, the GI50 was 38.5 µM (inactive) in assay [1]; > 100 µM (inactive) in assay [2]; 22 µM (inactive) in [3]; 63.2 µM (inactive) in [4]; > 100 µM (inactive) in assay [5]; > 100 µM (inactive) in assay [6]. The GI50 was 55.7 µM (inactive) in assay [7]; 96.6 µM (inactive) in assay [8]; > 100 µM (inactive) in [17]; > 100 µM (inactive) in assay [9]; > 100 µM (inactive) in assay [10]; 27 µM (inactive) in [11]. For the same compound, the GI50 in assay [12] was 40.7 µM (inactive); in [13], 21.8 µM (inactive); in assay [14], > 100 µM (inactive); in assay [15] it was > 100 µM (inactive); in assay [16], 19 µM (inactive).
Regarding `COc1ccc2c(c1OC)C(C(Cl)(Cl)Cl)N1CCc3cc4c(cc3C1=C2)OCO4` (stereo unspecified), the GI50 was 21.2 µM (inactive) in assay [1]; 35.6 µM (inactive) in [2]; 23.9 µM (inactive) in assay [3]; 5.93 µM (inactive) in assay [4]; 3.41 µM (inactive) in assay [5]; 11.5 µM (inactive) in assay [6]. For the same compound, the GI50 was 10.6 µM (inactive) in [7]; 24.7 µM (inactive) in [8]; 10.7 µM (inactive) in [17]; 8.11 µM (inactive) in [9]; 5.82 µM (inactive) in assay [10]; 2.08 µM (inactive) in [11]. Also, the GI50 in assay [12] was 3.94 µM (inactive); in [13], 72.6 µM (inactive); in [15], 42.7 µM (inactive); in assay [16], 32.7 µM (inactive).
Turning to `COc1cc2c3c(c1Oc1nnnn1-c1ccccc1)-c1c(ccc4c1OCO4)C[C@H]3N(C)CC2`, the GI50 in assay [1] was 80.7 µM (inactive); in assay [2] it was 78.9 µM (inactive); in assay [3] it was 24.4 µM (inactive); in assay [5] it was 48.9 µM (inactive); in assay [6], 18.2 µM (inactive); in [7], 31.7 µM (inactive). For the same compound, the GI50 was 38.6 µM (inactive) in [8]; 36.9 µM (inactive) in assay [17]; 47.8 µM (inactive) in assay [9]; 65.5 µM (inactive) in [10]; 32.5 µM (inactive) in [11]; 29.5 µM (inactive) in assay [12]. In addition, the GI50 in [13] was > 100 µM (inactive); in [14] it was 60.5 µM (inactive); in assay [15] it was 32.4 µM (inactive); in [16], 29 µM (inactive).

(Values after ChEMBL document CHEMBL1201862, “PubChem BioAssay data set” (2004).)
